Results: patent US7982018B2, “Modified corticotropin releasing factor peptides and uses thereof” (Conjuchem, LLC, priority 2006, dated 2011)
Where no end group is shown, it is not given here.

Tested on: Male C57BL/6 mice
Experiment: Food intake in mice after a single intravenous injection of urocortin derivatives
Type: in vivo
Method: The potency of several modified urocortin derivatives were determined by measuring food intake in mice. A study was performed with native human urocortin 1, 2 and 3 to select a dose and to determine whether the IV route was adequate for native peptides. Following the initial study, two additional studies were performed in which the effect of modified derivatives and native peptides were compared.
Male C57BL/6 mice (22-26g) were housed 3 per cage and fed with standard chow. The night before dosing, mice were food restricted i.e., they were given only half of the amount of food ingested during the previous night. Dosing was performed between 9 and 10 a.m. Mice received a single intravenous injection (5 ml/kg via the tail vein) of saline or urocortin derivatives diluted in saline. Food intake was measured by placing preweighed pellets in the cage and weighing the uneaten pellets at 1, 2, 4, 6, 24 and 48 hours postdose.

[1] = Study No. 2, FIG. 3, (Ucn II and III derivatives)
[2] = Study No. 2, FIG. 3, 20 nmol/kg (Ucn I derivatives)

Substance: IVLSLDVPIGLLQILLEQARAK-(ε-AEEA-MPA) AAR EQATT NARIL ARV-NH2 (IVLSLDVPIGLLQILLEQARAKAAREQATTNARILARV; Lys-AEEA-MPA, C-terminal amide) [SEQ ID No. 83, Modified peptide of human urocortin 2]
- inhibition of food intake as compared to the control group (Study No. 1, FIG. 1, 85 nmol/kg, 4-6 hour time interval): 50%
- duration of activity on food intake compared with the other tested compounds [1]: most prolonged activity

Substance: IVLSLDVPIGLLQILLEQARARAAREQATTNARILARVGHC-NH2 (IVLSLDVPIGLLQILLEQARARAAREQATTNARILARVGHC-NH2; listed as Homo sapiens) [SEQ ID No. 92]
- food intake in the 1-2 h time period versus control (Study No. 1, FIG. 1, 85 nmol/kg, 1-2 h postdose): back to the control
- time over which food intake was reduced/inhibited postdose (Study No. 1, FIG. 1, normal mice, 85 nmol/kg): up to 1 hour
- cumulative food intake versus saline control (Study No. 1, FIG. 2, 85 nmol/kg, at 6 hours postdose): still lower than the saline control

Substance: DNPSLSIDLTFHLLRTLLELAK-(ε-AEEA-MPA)TQS QRERA EQNRI IFDSV-NH2 (DNPSLSIDLTFHLLRTLLELAKTQSQRERAEQNRIIFDSV; Lys-AEEA-MPA, C-terminal amide) [SEQ ID No. 80, Modified peptide of human urocortin 1]
- 'rebound' of food intake as compared to the control [2]: increase of food intake as compared to the control

Substance: FTLSL DVPTN IMNLL FNIAK(ε-AEEA-MPA) ARNLR AQAAA NAHLM AQI-NH2 (FTLSLDVPTNIMNLLFNIAKARNLRAQAAANAHLMAQI; Lys-AEEA-MPA, C-terminal amide) [SEQ ID No. 85, Modified peptide of human urocortin 3]
- 'rebound' of food intake as compared to the control [1]: increase of food intake as compared to the control

Substance: FTLSLDVPTNIMNLLFNIAKAKNLRAQAAANAHLMAQI-NH2 (FTLSLDVPTNIMNLLFNIAKAKNLRAQAAANAHLMAQI-NH2; listed as Homo sapiens) [Urocortin III, Human Urocortin 3 (38 Amino-acids), native peptide]
- 'rebound' of food intake as compared to the control [1]: increase of food intake as compared to the control
- activity on food intake versus the free peptide [1]: much less active than the free peptide
- period of decreased food intake [1]: decreased food intake during the first hour after injection only

Substance: DNPSLSIDLTFHLLRTLLELARTQSQRERAEQNRIIFDSV-NH2 (DNPSLSIDLTFHLLRTLLELARTQSQRERAEQNRIIFDSV-NH2; listed as Homo sapiens) [human urocortin 1, Human Urocortin 1 (40 Amino-acids), native peptide]
- time up to which food intake was reduced [2]: up to 4 hours
